Results reported in the NIST ThermoML archive (doi:10.1016/j.tca.2012.10.024).
± gives the expanded uncertainty stated by the source.

Experiments:
[1] = refractive index (Na D-line) (dimensionless); xn = mol fraction of the nth substance listed; conditions: 101 kPa, Liquid, Standard Abbe refractometry
[2] = relative permittivity at zero frequency (dimensionless); xn = mol fraction of the nth substance listed; conditions: 101 kPa, Liquid, Parallel plate capacitor

COCCOCCOCCOCCOC [2,5,8,11,14-pentaoxapentadecane] + CCCCCCCC
Conditions	refractive index, 293.15 K	refractive index, 298.15 K	refractive index, 303.15 K	relative permittivity at zero frequency, 293.15 K	relative permittivity at zero frequency, 298.15 K	relative permittivity at zero frequency, 303.15 K
[1], x1 = 0.0503	1.3993 ± 0.0007	1.3969 ± 0.0007	1.3946 ± 0.0007	–	–	–
[1], x1 = 0.1003	1.4011 ± 0.0007	1.3987 ± 0.0007	1.3965 ± 0.0007	–	–	–
[1], x1 = 0.1515	1.4031 ± 0.0007	1.4007 ± 0.0007	1.3985 ± 0.0007	–	–	–
[1], x1 = 0.2061	1.4052 ± 0.0007	1.4028 ± 0.0007	1.4006 ± 0.0007	–	–	–
[1], x1 = 0.245	1.4067 ± 0.0007	1.4043 ± 0.0007	1.4021 ± 0.0007	–	–	–
[1], x1 = 0.305	1.4091 ± 0.0007	1.4067 ± 0.0007	1.4045 ± 0.0007	–	–	–
[1], x1 = 0.3569	1.4111 ± 0.0007	1.4087 ± 0.0007	1.4065 ± 0.0007	–	–	–
[1], x1 = 0.4054	1.4127 ± 0.0007	1.4106 ± 0.0007	1.4084 ± 0.0007	–	–	–
[1], x1 = 0.4487	1.4144 ± 0.0007	1.4122 ± 0.0007	1.41 ± 0.0007	–	–	–
[1], x1 = 0.5043	1.4163 ± 0.0007	1.4142 ± 0.0007	1.4121 ± 0.0007	–	–	–
[1], x1 = 0.5537	1.4182 ± 0.0007	1.4159 ± 0.0007	1.4138 ± 0.0007	–	–	–
[1], x1 = 0.5963	1.4195 ± 0.0007	1.4173 ± 0.0007	1.4151 ± 0.0007	–	–	–
[1], x1 = 0.6473	1.4213 ± 0.0007	1.4191 ± 0.0007	1.417 ± 0.0007	–	–	–
[1], x1 = 0.693	1.4228 ± 0.0007	1.4208 ± 0.0007	1.4186 ± 0.0007	–	–	–
[1], x1 = 0.7515	1.4248 ± 0.0008	1.4227 ± 0.0008	1.4207 ± 0.0008	–	–	–
[1], x1 = 0.8067	1.4268 ± 0.0008	1.4248 ± 0.0008	1.423 ± 0.0008	–	–	–
[1], x1 = 0.8475	1.4281 ± 0.0008	1.426 ± 0.0008	1.4239 ± 0.0008	–	–	–
[1], x1 = 0.8941	1.4295 ± 0.0008	1.4275 ± 0.0008	1.4256 ± 0.0008	–	–	–
[1], x1 = 0.947	1.431 ± 0.0008	1.429 ± 0.0008	1.4271 ± 0.0008	–	–	–
[2], x1 = 0.033	–	–	–	2.107 ± 0.13	2.098 ± 0.13	2.088 ± 0.12
[2], x1 = 0.0659	–	–	–	2.254 ± 0.14	2.242 ± 0.14	2.23 ± 0.13
[2], x1 = 0.0998	–	–	–	2.413 ± 0.14	2.398 ± 0.14	2.382 ± 0.14
[2], x1 = 0.133	–	–	–	2.577 ± 0.15	2.558 ± 0.15	2.538 ± 0.15
[2], x1 = 0.1645	–	–	–	2.736 ± 0.16	2.715 ± 0.16	2.693 ± 0.16
[2], x1 = 0.2003	–	–	–	2.922 ± 0.17	2.896 ± 0.17	2.87 ± 0.17
[2], x1 = 0.2488	–	–	–	3.19 ± 0.19	3.158 ± 0.19	3.126 ± 0.19
[2], x1 = 0.3002	–	–	–	3.476 ± 0.21	3.438 ± 0.21	3.4 ± 0.2
[2], x1 = 0.3486	–	–	–	3.762 ± 0.23	3.718 ± 0.22	3.675 ± 0.22
[2], x1 = 0.3951	–	–	–	4.03 ± 0.24	3.981 ± 0.24	3.931 ± 0.24
[2], x1 = 0.4461	–	–	–	4.347 ± 0.26	4.291 ± 0.26	4.234 ± 0.25
[2], x1 = 0.5092	–	–	–	4.738 ± 0.28	4.674 ± 0.28	4.61 ± 0.28
[2], x1 = 0.5516	–	–	–	5.005 ± 0.3	4.937 ± 0.3	4.867 ± 0.29
[2], x1 = 0.6003	–	–	–	5.313 ± 0.32	5.238 ± 0.31	5.163 ± 0.31
[2], x1 = 0.6409	–	–	–	5.578 ± 0.34	5.499 ± 0.33	5.42 ± 0.33
[2], x1 = 0.693	–	–	–	5.909 ± 0.35	5.823 ± 0.35	5.736 ± 0.34
[2], x1 = 0.7072	–	–	–	6.004 ± 0.36	5.916 ± 0.35	5.827 ± 0.35
[2], x1 = 0.7515	–	–	–	6.298 ± 0.38	6.205 ± 0.37	6.111 ± 0.37
[2], x1 = 0.8002	–	–	–	6.622 ± 0.4	6.523 ± 0.39	6.421 ± 0.39
[2], x1 = 0.8461	–	–	–	6.943 ± 0.42	6.838 ± 0.41	6.732 ± 0.4
[2], x1 = 0.8985	–	–	–	7.279 ± 0.44	7.168 ± 0.43	7.057 ± 0.42
[2], x1 = 0.9441	–	–	–	7.585 ± 0.46	7.469 ± 0.45	7.351 ± 0.44

COCCOCCOCCOCCOC [2,5,8,11,14-pentaoxapentadecane] + CCCCCO
Conditions	refractive index, 293.15 K	refractive index, 298.15 K	refractive index, 303.15 K	relative permittivity at zero frequency, 293.15 K	relative permittivity at zero frequency, 298.15 K	relative permittivity at zero frequency, 303.15 K
[1], x2 = 0.0505	1.4319 ± 0.0019	1.4302 ± 0.0009	1.4279 ± 0.0012	–	–	–
[1], x2 = 0.1002	1.4315 ± 0.0009	1.4294 ± 0.0009	1.4273 ± 0.0009	–	–	–
[1], x2 = 0.1509	1.4305 ± 0.0009	1.4286 ± 0.0009	1.4265 ± 0.0009	–	–	–
[1], x2 = 0.1919	1.4301 ± 0.0008	1.4281 ± 0.0009	1.4259 ± 0.0009	–	–	–
[1], x2 = 0.2458	1.4291 ± 0.0009	1.4272 ± 0.0009	1.4251 ± 0.0009	–	–	–
[1], x2 = 0.291	1.4285 ± 0.0008	1.4265 ± 0.0009	1.4244 ± 0.0009	–	–	–
[1], x2 = 0.3384	1.4276 ± 0.0008	1.4256 ± 0.0008	1.4236 ± 0.0008	–	–	–
[1], x2 = 0.3986	1.4265 ± 0.0008	1.4246 ± 0.0008	1.4225 ± 0.0008	–	–	–
[1], x2 = 0.4554	1.4256 ± 0.0008	1.4235 ± 0.0008	1.4215 ± 0.0008	–	–	–
[1], x2 = 0.493	1.4248 ± 0.0008	1.4229 ± 0.0008	1.4207 ± 0.0009	–	–	–
[1], x2 = 0.5496	1.4236 ± 0.0008	1.4217 ± 0.0008	1.4196 ± 0.0008	–	–	–
[1], x2 = 0.5931	1.4227 ± 0.0008	1.4207 ± 0.0008	1.4186 ± 0.0008	–	–	–
[1], x2 = 0.6455	1.4214 ± 0.0008	1.4194 ± 0.0008	1.4174 ± 0.0008	–	–	–
[1], x2 = 0.6979	1.42 ± 0.0008	1.4181 ± 0.0008	1.416 ± 0.0008	–	–	–
[1], x2 = 0.7424	1.4188 ± 0.0008	1.4168 ± 0.0008	1.4148 ± 0.0008	–	–	–
[1], x2 = 0.7959	1.4172 ± 0.0008	1.4153 ± 0.0008	1.4133 ± 0.0008	–	–	–
[1], x2 = 0.8372	1.4159 ± 0.0008	1.4141 ± 0.0008	1.4121 ± 0.0008	–	–	–
[1], x2 = 0.8679	1.4149 ± 0.0008	1.4131 ± 0.0008	1.4111 ± 0.0008	–	–	–
[1], x2 = 0.8987	1.4139 ± 0.0008	1.4121 ± 0.0008	1.41 ± 0.0008	–	–	–
[1], x2 = 0.9225	1.413 ± 0.0008	1.4112 ± 0.0008	1.4092 ± 0.0008	–	–	–
[1], x2 = 0.9488	1.412 ± 0.0008	1.4102 ± 0.0008	1.4081 ± 0.0008	–	–	–
[1], x2 = 0.9793	1.4109 ± 0.0008	1.409 ± 0.0008	1.407 ± 0.0008	–	–	–
[2], x2 = 0.0505	–	–	–	7.99 ± 0.48	7.863 ± 0.47	7.737 ± 0.46
[2], x2 = 0.1002	–	–	–	7.97 ± 0.48	7.843 ± 0.47	7.715 ± 0.46
[2], x2 = 0.1509	–	–	–	8.043 ± 0.48	7.911 ± 0.47	7.779 ± 0.47
[2], x2 = 0.1919	–	–	–	8.041 ± 0.48	7.906 ± 0.47	7.771 ± 0.47
[2], x2 = 0.2458	–	–	–	8.132 ± 0.49	7.993 ± 0.48	7.854 ± 0.47
[2], x2 = 0.291	–	–	–	8.15 ± 0.49	8.009 ± 0.48	7.866 ± 0.47
[2], x2 = 0.3384	–	–	–	8.271 ± 0.5	8.119 ± 0.49	7.968 ± 0.48
[2], x2 = 0.3986	–	–	–	8.344 ± 0.5	8.186 ± 0.49	8.029 ± 0.48
[2], x2 = 0.4554	–	–	–	8.523 ± 0.51	8.35 ± 0.5	8.18 ± 0.49
[2], x2 = 0.493	–	–	–	8.615 ± 0.52	8.438 ± 0.51	8.26 ± 0.5
[2], x2 = 0.5496	–	–	–	8.857 ± 0.53	8.662 ± 0.52	8.469 ± 0.51
[2], x2 = 0.5931	–	–	–	9.027 ± 0.54	8.819 ± 0.53	8.615 ± 0.52
[2], x2 = 0.6455	–	–	–	9.353 ± 0.56	9.122 ± 0.55	8.896 ± 0.53
[2], x2 = 0.6979	–	–	–	9.71 ± 0.58	9.454 ± 0.57	9.203 ± 0.55
[2], x2 = 0.7424	–	–	–	10.138 ± 0.61	9.853 ± 0.59	9.577 ± 0.57
[2], x2 = 0.7959	–	–	–	10.73 ± 0.64	10.413 ± 0.62	10.103 ± 0.61
[2], x2 = 0.8372	–	–	–	11.351 ± 0.68	10.992 ± 0.66	10.643 ± 0.64
[2], x2 = 0.8679	–	–	–	11.894 ± 0.71	11.506 ± 0.69	11.123 ± 0.67
[2], x2 = 0.8987	–	–	–	12.519 ± 0.75	12.102 ± 0.73	11.691 ± 0.7
[2], x2 = 0.9225	–	–	–	13.119 ± 0.79	12.665 ± 0.76	12.217 ± 0.73
[2], x2 = 0.9488	–	–	–	13.878 ± 0.83	13.383 ± 0.8	12.896 ± 0.77
[2], x2 = 0.9793	–	–	–	14.929 ± 0.9	14.377 ± 0.86	13.834 ± 0.83
